Measurements taken from BindingDB's records for patent US20240010658 (Ono Pharmaceutical Co., 2024).

Target: T1, Monoacylglycerol lipase ABHD6 [33-337] (Homo sapiens, UniProt Q9BV23)
T1 construct: 33-337
T1 sequence (Q9BV23 whole entry): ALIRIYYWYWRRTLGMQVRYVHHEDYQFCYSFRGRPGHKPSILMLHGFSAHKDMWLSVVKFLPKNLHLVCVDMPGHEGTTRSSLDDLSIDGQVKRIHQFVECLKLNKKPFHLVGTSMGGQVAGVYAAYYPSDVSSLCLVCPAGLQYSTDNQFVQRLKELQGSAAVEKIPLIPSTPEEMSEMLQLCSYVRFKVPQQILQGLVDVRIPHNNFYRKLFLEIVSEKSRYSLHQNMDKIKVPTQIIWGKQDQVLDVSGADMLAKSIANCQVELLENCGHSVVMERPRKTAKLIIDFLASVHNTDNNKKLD
Assay: Evaluation of ABHD6 Enzyme Inhibitory Activity Assay
Method: The enzyme reaction was carried out at room temperature using a 384-well microplate made of polypropylene, and wells to which no enzyme was added were designated as a blank group. One hour after the start of the enzyme reaction, methanol containing, as an internal standard substance, arachidonic acid-d8 (Cayman Chemical) and 1% formic acid was added to stop enzymatic reaction. The upper part of the enzyme reaction plate was sealed with aluminum, and centrifugation was performed at 560 g for 5 minutes at room temperature. Then, arachidonic acid as an enzyme reaction product and arachidonic acid-ds as the internal standard substance were quantified with RapidFire (registered trademark)-Mass Spectrometry system.

IC50: in the range around 2 nM
Structure (SMILES): CN(C)c1ncc(C(=O)N2C[C@@H]3CC[C@@H](Nc4ccc(Br)nn4)[C@@H]3C2)s1 [US20240010658, Example 2-6]
